According to patent publication US20240335431A1, “1-H-PYRROLO[2,3-c]PYRIDINE COMPOUNDS” (Acerta Pharma B.V., priority 2023, published 2024):
Like-named read-outs stand apart in the source and are kept apart here.

Columns and labels:
hERG = hERG (Homo sapiens (Human), UniProt Q12809); assay: hERG assay 1 (standard), SyncroPatch 384PE; format: cell-based; conditions: CHO cells, room temperature, up to 40 uM
In short: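 Automated patch clamp on hERG-expressing CHO-K1 cells at room temperature, +60/−40 mV protocol every 15 s. Six-point cumulative concentrations 139 nM to 40 uM (0.33% DMSO final); IC50 from one-site fit of % inhibition. Wells required ≥30 MegaOhm seal, current >0.2 nA, Z prime >0.4.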

OCI-AML3 cells = assay: Proliferation assay, OCI-AML3 (CellTiter-Glo, 7 days); format: cell-based, human
In short: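 Cells seeded at 125 (MOLM-13), 300 (MV4;11), 75 (OCI-AML3) or 200 (HEL) per well were exposed to 3.16-fold compound dilutions (0.1% DMSO) for 7 days at 37° C. Viability by CellTiter-Glo luminescence, normalized to DMSO (100%) and day-0 plate (0%); IC50 from one-site dose-response fit.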

[1] = Caco-2 cell monolayers intrinsic permeation assay in the presence of efflux inhibitors; format: in vitro ADME; conditions: Caco-2, with efflux inhibitors
Text: Caco-2 cells were obtained from American Type Culture Collection (ATCC). HEPES, penicillin, streptomycin, bovine serum albumin (BSA) were obtained from Beijing Xinjingke Biotechnology Co, Ltd. Fetal bovine serum, Hank's balanced salt solution (HBSS) and non-essential amino acids (NEAA) were purchased from Gibco. Dulbecco's Modified Eagle's Medium (DMEM) was purchased from Corning and MES from Sigma. HTS Transwell-24 permeable supports were purchased from Corning. Zosuquidar and Ko-143 were obtained from MedChemExpress and Benzbromarone from Sigma.
The Caco-2 cell culture medium consisted of DMEM with high glucose and L-glutamine supplemented with 10% FBS, 0.1 mg/mL streptomycin, 100 units of penicillin, 0.6 mg/mL kanamycin sulfate and 1×NEAA. […] culture medium was added to each Transwell insert with 800 mL added to each well of the reservoir. After incubation at 37° C. in 5% CO2 for 1 hour, the plates were ready for seeding.
The cells were cultivated in T-75 flasks at 37° C., 5% CO2, 95% relative humidity. At 80 to 90% confluence, cells were treated with trypsin/EDTA treatment until they became detached. The trypsin/EDTA was inactivated by adding excess serum containing medium. The cell suspension was centrifuged at 120 g for 10 minutes followed by resuspension of the cell pellet in seeding medium at a cell density of 7.92×10^5 cells/mL.
[…] of the resulting cell suspension was added to each well of the Transwell plate and incubated for 14 to 18 days, with medium replaced every other day. After incubation for 14 to 18 days, the cells should have reached confluence and should be tested for electrical resistance using a Millicel Epithelial Volt-Ohm measuring system (Millipore).
The cell monolayers were washed twice with pre-warmed HBSS and incubated at 37° C. for 30 minutes under gentle shaking (480 rpm).
The compound under test was presented as a 10 mM DMSO stock solution. 2 mL of the 10 mM stock was added to 8 mL DMSO to produce a 2 mM stock. 2 mL was added to 398 mL of HBSS containing 10 mM Zosuquidar, 30 mM Benzbromarone and 2 mM KO-143 to make a […] solution.
210 mL of the test compound solution was added to the apical compartment of the Transwell plate, with a 10 mL sample taken to act as the time 0 sample. The wells of the receiver (basolateral) compartment were filled with 800 mL HBSS (containing the efflux inhibitors). The plates were incubated at 37° C. with shaking at 480 rpm for 120 minutes with sampling at 45 and 120 minutes.
At each sampling time (0, 45 and 120 minutes) 10 mL was removed from the apical compartment and add to 90 mL (HBSS containing the efflux inhibitors). 100 mL was removed from each basolateral compartment. 3 volumes of cold acetonitrile containing internal standard was added to each sample and vortex mixed for 10 minutes at 100 rpm. Samples were then centrifuged at 400 rpm for 20 minutes. 50 mL of the supernatant was taken for LC/MS/MS analysis to determine compound concentration.
The apparent permeability (Papp), in units of centimetre per second, were calculated for Caco-2 drug transport using the following equation: […]
Where CR is the concentration of compound in the receiver side at the respective time point, CD is the concentration of compound in the donor side at the respective timepoint. Area is the surface area of the membrane and time is 4500 seconds (75×60 seconds).

hERG, sequence (Q12809 whole entry): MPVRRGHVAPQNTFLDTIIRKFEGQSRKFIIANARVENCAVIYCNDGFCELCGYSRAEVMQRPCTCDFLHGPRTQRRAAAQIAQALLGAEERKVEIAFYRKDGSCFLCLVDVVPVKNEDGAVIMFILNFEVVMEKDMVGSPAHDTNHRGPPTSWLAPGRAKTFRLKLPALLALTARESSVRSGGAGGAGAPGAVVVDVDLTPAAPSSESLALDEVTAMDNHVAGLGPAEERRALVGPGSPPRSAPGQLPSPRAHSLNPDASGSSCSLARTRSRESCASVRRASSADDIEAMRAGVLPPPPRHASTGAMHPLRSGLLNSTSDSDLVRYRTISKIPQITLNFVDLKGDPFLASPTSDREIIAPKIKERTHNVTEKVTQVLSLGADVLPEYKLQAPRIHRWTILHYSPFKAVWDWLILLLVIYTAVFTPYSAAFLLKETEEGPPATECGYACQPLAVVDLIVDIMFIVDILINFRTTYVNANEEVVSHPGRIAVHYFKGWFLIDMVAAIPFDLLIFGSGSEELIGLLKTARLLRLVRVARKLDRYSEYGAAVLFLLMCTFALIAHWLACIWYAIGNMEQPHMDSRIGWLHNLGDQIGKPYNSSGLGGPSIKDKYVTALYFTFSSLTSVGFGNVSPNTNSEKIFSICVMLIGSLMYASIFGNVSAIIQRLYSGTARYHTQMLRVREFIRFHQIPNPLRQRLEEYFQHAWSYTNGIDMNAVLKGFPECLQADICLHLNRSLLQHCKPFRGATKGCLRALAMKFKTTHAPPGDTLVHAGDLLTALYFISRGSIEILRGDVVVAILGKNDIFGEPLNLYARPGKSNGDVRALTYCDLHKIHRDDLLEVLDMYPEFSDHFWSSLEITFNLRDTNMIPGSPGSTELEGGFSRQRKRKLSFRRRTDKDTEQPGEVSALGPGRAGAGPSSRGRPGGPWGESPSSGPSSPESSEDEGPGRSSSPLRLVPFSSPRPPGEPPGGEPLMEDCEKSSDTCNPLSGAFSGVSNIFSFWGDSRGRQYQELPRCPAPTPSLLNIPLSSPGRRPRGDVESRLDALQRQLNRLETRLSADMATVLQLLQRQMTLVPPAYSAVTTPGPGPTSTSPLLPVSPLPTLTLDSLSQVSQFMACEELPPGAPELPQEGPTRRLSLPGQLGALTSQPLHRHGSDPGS

SMILES | IC50 (hERG) [nM] | IC50 (OCI-AML3 cells; Homo sapiens, OCI-AML-3, 168 h) [nM] | Papp A→B [1] [×10⁻⁶ cm/s] | IC50 (OCI-AML3 cells) [nM]
CC(C)N(C(=O)c1cc(F)ccc1-n1cc(C(=O)C2CCN(C(=O)[C@H]3NC[C@@H]4CC[C@@H]43)CC2)c2ccncc21)C(C)C (relative stereo) [Example 25, rel-2-(3-(1-((1R,2R,5S)-3-Azabicyclo[3.2.0]heptane-2-carbonyl)piperidine-4-carbonyl)-1H-pyrrolo[2,3-c]pyridin-1-yl)-5-fluoro-N,N-diisopropylbenzamide] | > 40000 | 37 | 3 | 
Cc1c(C(=O)C2CCN(C(=O)[C@@H]3CCC(C)(C)N3)CC2)c2ccncc2n1-c1ccc(F)cc1C(=O)N(C(C)C)C(C)C (single isomer, unassigned) [Compound 56-2] | > 40000 | 47 |  | 
CCN(C(=O)c1cc(F)ccc1-n1c(C)c(C(=O)C2CCN(C(=O)[C@H]3NC[C@@H]4C[C@@H]43)CC2)c2ccncc21)C(C)C (single isomer, unassigned) [Example 48-2] | > 40000 |  |  | 23
CCN(C(=O)c1cc(F)ccc1-n1c(C)c(C(=O)C2CCN(C(=O)[C@@H]3CCC4(CC4)N3)CC2)c2ccncc21)C(C)C (single isomer, unassigned) [Example 49-2] | > 38000 | > 233 | 6.3 | 
CCN(C(=O)c1cc(F)ccc1-n1c(C)c(C(=O)C2CCN(C(=O)[C@@H]3CCC(C)(C)N3)CC2)c2ccncc21)C(C)C (single isomer, unassigned) [Example 50-2] | > 40000 | 63 | 1.2 | 
Cc1c(C(=O)C2CCN(C(=O)[C@H]3NC[C@@H]4C[C@@H]43)CC2)c2ccncc2n1-c1ccc(F)cc1C(=O)N(CC(F)(F)F)C(C)C (single isomer, unassigned) [Example 51-2] | > 40000 | 37 |  | 
CCN(C(=O)c1cc(F)ccc1-n1c(C)c(C(=O)[C@@H]2CCN(C(=O)[C@@H]3CCC4(CC4)N3)[C@@H](C)C2)c2ccncc21)C(C)C (single isomer, unassigned) [Example 52-1, N-Ethyl-5-fluoro-N-isopropyl-2-(2-methyl-3-((2R*,4S*)-2-methyl-1-((S)-4-azaspiro[2.4]heptane-5-carbonyl)piperidine-4-carbonyl)-1H-pyrrolo[2,3-c]pyridin-1-yl)benzamide] |  |  | 10.9 | 40
CCN(C(=O)c1cc(F)ccc1-n1c(C)c(C(=O)[C@@H]2CCN(C(=O)[C@@H]3CCC4(CC4)N3)[C@@H](C)C2)c2ccncc21)C(C)C (single isomer, unassigned) [Example 52-2, N-Ethyl-5-fluoro-N-isopropyl-2-(2-methyl-3-((2R*,4S*)-2-methyl-1-((S)-4-azaspiro[2.4]heptane-5-carbonyl)piperidine-4-carbonyl)-1H-pyrrolo[2,3-c]pyridin-1-yl)benzamide] | 14200 |  |  | 82
Cc1c(C(=O)[C@@H]2CCN(C(=O)[C@H]3NC[C@@H]4C[C@@H]43)[C@@H](C)C2)c2ccncc2n1-c1ccc(F)cc1C(=O)N(CC(F)(F)F)C(C)C (single isomer, unassigned) [Example 53-3, 2-(3-((2R*,4S*)-1-((1S,2S,5R)-3-Azabicyclo[3.1.0]hexane-2-carbonyl)-2-methylpiperidine-4-carbonyl)-2-methyl-1H-pyrrolo[2,3-c]pyridin-1-yl)-5-fluoro-N-isopropyl-N-(2,2,2-trifluoroethyl)benzamide] | 31400 |  | 3.6 | 14
Cc1c(C(=O)C2CCN(C(=O)[C@H]3NC[C@@H]4C[C@@H]43)CC2)c2ccncc2n1-c1ccc(F)cc1C(=O)N(C(C)C)C(C)C (single isomer, unassigned) [Example 55-2] | > 40000 | 29 |  | 
Cc1c(C(=O)C2CCN(C(=O)[C@H]3NC[C@@H]4C[C@@H]43)CC2)c2ccncc2n1-c1ccc(F)cc1C(=O)N(C(C)C)[C@H](C)C(F)(F)F (single isomer, unassigned) [Example 57-1] | > 38500 | 77 |  | 
Cc1c(C(=O)C2CCN(C(=O)[C@@H]3CCC4(CC4)N3)CC2)c2ccncc2n1-c1ccc(F)cc1C(=O)N1[C@H](C)COC[C@H]1C (single isomer, unassigned) [Example 58-2] | > 40000 | 35 | 5.4 | 
Cc1c(C(=O)[C@@H]2CCN(C(=O)[C@@H]3CC[C@@H](C)N3)[C@@H](C)C2)c2ccncc2n1-c1ccc(F)cc1C(=O)N(C(C)C)C(C)C (stereo in doubt) [Example 64, 5-Fluoro-N,N-diisopropyl-2-(2-methyl-3-((2S,4RS)-2-methyl-1-((2S,5R)-5-methylpyrrolidine-2-carbonyl)piperidine-4-carbonyl)-1H-pyrrolo[2,3-c]pyridin-1-yl)benzamide] | 32700 | 313 | 4.3 | 
CCN(C(=O)c1cc(F)ccc1-n1c(C)c(C(=O)[C@@H]2CCN(C(=O)[C@@H]3CC[C@@H](C)N3)[C@@H](C)C2)c2ccncc21)C(C)C (stereo in doubt) [Example 65, N-Ethyl-5-fluoro-N-isopropyl-2-(2-methyl-3-((2S,4RS)-2-methyl-1-((2S,5R)-5-methylpyrrolidine-2-carbonyl)piperidine-4-carbonyl)-1H-pyrrolo[2,3-c]pyridin-1-yl)benzamide] | > 40000 | 126 | 1.7 | 
CCN(C(=O)c1cc(F)ccc1-n1cc(C(=O)C2CN(C(=O)[C@H]3NC4CCC3CC4)C2)c2ccncc21)C(C)C [Example 9, (S)-2-(3-(1-(2-Azabicyclo[2.2.2]octane-3-carbonyl)azetidine-3-carbonyl)-1H-pyrrolo[2,3-c]pyridin-1-yl)-N-ethyl-5-fluoro-N-isopropylbenzamide] |  | 225 | 0.5 | 
CC(C)c1ncccc1-c1cc(F)ccc1-n1cc(C(=O)C2CCN(C(=O)[C@H]3N[C@@H]4CC[C@H]3C4)CC2)c2ccncc21 [Example 38, (1-((1R,3S,4S)-2-Azabicyclo[2.2.1]heptane-3-carbonyl)piperidin-4-yl)(1-(4-fluoro-2-(2-isopropylpyridin-3-yl)phenyl)-1H-pyrrolo[2,3-c]pyridin-3-yl)methanone] | > 40000 |  | 1.5 | 
O=C(c1cn(-c2ccc(F)cc2-c2cncnc2C2CC2)c2cnccc12)C1CCN(C(=O)[C@H]2N[C@@H]3CC[C@H]2C3)CC1 [Example 40, (1-((1R,3S,4S)-2-Azabicyclo[2.2.1]heptane-3-carbonyl)piperidin-4-yl)(1-(2-(4-cyclopropylpyrimidin-5-yl)-4-fluorophenyl)-1H-pyrrolo[2,3-c]pyridin-3-yl)methanone] | > 40000 |  | 0.3 | 
CC(C)c1ccncc1-c1cc(F)ccc1-n1cc(C(=O)C2CCN(C(=O)[C@H]3N[C@@H]4CC[C@H]3C4)CC2)c2ccncc21 [Example 41, (1-((1R,3S,4S)-2-Azabicyclo[2.2.1]heptane-3-carbonyl)piperidin-4-yl)(1-(4-fluoro-2-(4-isopropylpyridin-3-yl)phenyl)-1H-pyrrolo[2,3-c]pyridin-3-yl)methanone] | > 40000 |  | 0.5 | 
CCN(C(=O)c1cc(F)ccc1-n1c(C)c(C(=O)C2CCN(C(=O)[C@H]3N[C@@H]4CC[C@H]3C4)CC2)c2ccncc21)C(C)C [Example 46, 2-(3-(1-((1R,3S,4S)-2-Azabicyclo[2.2.1]heptane-3-carbonyl)piperidine-4-carbonyl)-2-methyl-1H-pyrrolo[2,3-c]pyridin-1-yl)-N-ethyl-5-fluoro-N-isopropylbenzamide] | > 40000 |  | 0.3 | 
